Reference: the supplement of paper PMC10307832

Experiments:
Experiment in all cases: relative viability (nuclei count vs DMSO), 5 days (fraction); higher = more cells survive
[1] = compound: N#CC1(c2ccc(NC(=O)c3cccnc3NCc3ccncc3)cc2)CCCC1 [Apatinib] + N=C(N)NC(=N)NCCc1ccccc1 [Phenformin] (partner 250 µM)
Outline: (§1)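 Relative viability is defined as nuclei in treated wells over nuclei in vehicle wells. Duplicate plates were run and medians reported. Lung cancer cell lines in 1536-well plates were dosed by pin tool one day after seeding, with one drug or with a fixed anchor-drug dose plus five library-drug doses (not always all listed) in √10 steps, and nuclei were counted after 5 days.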

[2] = compound: CN(C)C(=N)NC(=N)N [Metformin] + CC1(C)CCC(c2ccc(Cl)cc2)=C(CN2CCN(c3ccc(C(=O)NS(=O)(=O)c4ccc(N[C@H](CCN5CCOCC5)CSc5ccccc5)c(S(=O)(=O)C(F)(F)F)c4)cc3)CC2)C1 [Navitoclax] (partner 0.5 µM)
Outline: as §1

[3] = compound: CN(C)C(=N)NC(=N)N [Metformin]
Outline: (§2)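 Viability here means nuclei in treated wells divided by nuclei in vehicle wells, reported as the median across plates. Only plates with control CV below 25% and at least one doubling passed. Lung cancer cell lines in 1536-well plates were exposed to five √10-spaced library-drug doses for 5 days and counted from 4× Hoechst images in MetaXpress.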

[4] = compound: N#CC1(c2ccc(NC(=O)c3cccnc3NCc3ccncc3)cc2)CCCC1 [Apatinib]
Outline: as §2

Cell Line	relative viability ([1]; first compound 0.08 µM)	relative viability ([1]; first compound 0.253 µM)	relative viability ([1]; first compound 0.8 µM)	relative viability ([1]; first compound 2.53 µM)	relative viability ([1]; first compound 8 µM)	relative viability ([2]; first compound 10 µM)	relative viability ([2]; first compound 31.62 µM)	relative viability ([2]; first compound 100 µM)	relative viability ([2]; first compound 316.23 µM)	relative viability ([2]; first compound 1000 µM)	relative viability ([3]; 10 µM)	relative viability ([3]; 31.62 µM)	relative viability ([3]; 100 µM)	relative viability ([3]; 316.23 µM)	relative viability ([3]; 1000 µM)	relative viability ([4]; 0.08 µM)	relative viability ([4]; 0.253 µM)	relative viability ([4]; 0.8 µM)	relative viability ([4]; 2.53 µM)	relative viability ([4]; 8 µM)
PC-3 [JPC-3]	0.471	0.468	0.474	0.448	0.46	0.702	0.735	0.821	0.761	0.732	0.898	0.986	1.01	0.987	1.02	1.06	0.983	0.915	0.955	0.985
H3255	0.393	0.398	0.343	0.358	0.32	0.503	0.623	0.571	0.531	0.355	0.839	1.09	0.967	0.909	0.841	0.979	0.935	0.964	0.859	0.916
RERF-LC-KJ	0.452	0.403	0.401	0.427	0.454	1.08	1.15	0.752	0.833	0.745	0.817	0.976	0.888	0.786	0.926	1.03	0.978	0.933	0.847	0.802
NCI-H2347	0.476	0.307	0.443	0.206	0.465	0.633	0.694	0.802	0.746	0.716	0.918	1.05	0.969	0.944	1.1	1.03	0.964	1.03	0.858	0.933
NCI-H520	0.661	0.567	0.56	0.391	0.391	1.1	1.08	1.13	0.979	1.19	1.08	0.928	1.18	0.889	1.03	1.11	0.945	1.01	0.813	0.81
NCI-H1395	0.464	0.419	0.454	0.412	0.459	1.11	1.32	1.06	0.958	1.1	1.06	1.3	0.96	0.956	0.521	0.914	1.11	0.964	0.685	0.844
LK-2	0.485	0.51	0.467	0.287	0.258	0.86	1.15	1.2	0.933	1.2	1.22	1.28	1.22	1.07	1.32	0.978	0.976	0.973	0.856	0.634
PC-14	0.445	0.793	–	0.476	0.446	0.968	0.958	0.998	1	0.989	1.01	1.09	0.997	0.971	0.944	1.03	1.05	0.829	0.968	0.956
NCI-H2023	0.384	0.481	0.404	0.329	0.301	–	0.973	0.876	–	0.567	0.782	1.13	0.921	0.853	0.769	1.01	0.94	0.974	0.881	0.883
NCI-H838	0.716	0.686	0.521	0.507	0.518	1.19	1.23	1.21	1.15	1.22	1.05	1.07	1.01	0.987	1.04	1.08	1.06	0.97	0.936	0.941
EKVX	0.233	0.228	0.234	0.216	0.234	0.681	0.889	0.968	0.779	0.948	0.756	0.95	1.07	0.922	1.03	0.869	0.904	0.984	0.873	0.877
NCI-H1944	0.209	0.207	0.179	0.18	0.159	0.968	1.04	1.04	0.966	1.07	0.845	1.1	0.954	0.882	1.04	0.948	0.921	0.886	0.791	0.921
EPLC-272H	0.325	–	0.318	0.333	0.265	1.23	1.1	1.04	1.1	1.4	0.9	1.16	0.923	0.935	1.09	1.01	1.02	0.914	0.774	0.691
NCI-H1666	0.567	0.572	0.6	0.53	0.564	1.17	1.05	0.956	0.899	1.07	0.938	1.11	0.971	1.07	1.09	1.01	0.958	0.969	0.997	0.986
A549	0.181	0.219	0.144	0.125	0.0802	0.895	1.03	1.04	0.843	0.297	0.896	0.976	0.923	0.849	0.996	1.02	1.04	1.02	0.903	0.909
NCI-H322M	0.831	0.76	0.778	0.814	0.784	1.19	1.28	1.02	1.14	1.19	0.974	0.922	0.939	0.951	0.855	0.964	0.861	0.894	0.975	1.07
